According to ChEMBL document CHEMBL1151338, “Alkaloids of Thalictrum XXX. Eleven Minor Alkaloids From Thalictrum rugosum” (1980):
Activity calls are given as the source filed them. The rule behind the calls is not given here.

How the values were obtained:
Staphylococcus aureus [1] = test: Antimicrobial activity against Staphylococcus aureus ATCC 13709a at 1000 ug/ml; assay type: functional, organism-based
Escherichia coli [2] = test: Antimicrobial activity against Escherichia coli ATCC 9637 at 1000 ug/ml; assay type: functional, organism-based
[3] = system: Salmonella enterica subsp. enterica serovar Gallinarum; test: Antimicrobial activity against Salmonella gallinarum ATCC 9184 at 1000 ug/ml; assay type: functional, organism-based
Klebsiella pneumoniae [4] = test: Antimicrobial activity against Klebsiella pneumoniae ATCC 10031 at 1000 ug/ml; assay type: functional, organism-based
[5] = system: Mycolicibacterium smegmatis; test: Antimicrobial activity against Mycobacterium smegmatis ATCC 607 at 1000 ug/ml; assay type: functional, organism-based
Candida albicans [6] = test: Antimicrobial activity against Candida albicans ATCC 10231 at 1000 ug/ml; assay type: functional, organism-based
Staphylococcus aureus [7] = test: Antimicrobial activity against Staphylococcus aureus ATCC 13709a; assay type: functional
[8] = system: Mycolicibacterium smegmatis; test: Antimicrobial activity against Mycobacterium smegmatis ATCC 607; assay type: functional
Escherichia coli [9] = test: Antimicrobial activity against Escherichia coli ATCC 9637; assay type: functional
[10] = system: Salmonella enterica subsp. enterica serovar Gallinarum; test: Antimicrobial activity against Salmonella gallinarum ATCC 9184; assay type: functional
Klebsiella pneumoniae [11] = test: Antimicrobial activity against Klebsiella pneumoniae ATCC 10031; assay type: functional
Candida albicans [12] = test: Antimicrobial activity against Candida albicans ATCC 10231; assay type: functional

## O=C1NCCc2cc3c(cc21)OCO3
Staphylococcus aureus [1]
  Activity: inactive
Escherichia coli [2]
  Activity: inactive
[3]
  Activity: inactive
Klebsiella pneumoniae [4]
  Activity: inactive
[5]
  Activity: inactive
Candida albicans [6]
  Activity: inactive

## COc1cc2c(cc1O)[C@H](Cc1ccc(OC)c(Oc3ccc(C[C@H]4c5cc(OC)c(OC)cc5CCN4C)cc3)c1)N(C)CC2 [NEOTHALIBRINE]
Staphylococcus aureus [7]
  Activity: 1000 µg/mL
Escherichia coli [2]
  Activity: inactive
[3]
  Activity: inactive
Klebsiella pneumoniae [4]
  Activity: inactive
[8]
  Activity: 1000 µg/mL
Candida albicans [6]
  Activity: inactive

## CN[C@@H]1[C@H](O[C@H]2[C@H](O[C@H]3[C@H](O)[C@@H](O)[C@H](N=C(N)N)[C@@H](O)[C@@H]3N=C(N)N)O[C@@H](C)[C@]2(O)C=O)O[C@@H](CO)[C@H](O)[C@H]1O [STREPTOMYCIN]
Staphylococcus aureus [7]
  Activity: 3.1 µg/mL
Escherichia coli [9]
  Activity: 12.5 µg/mL
[10]
  Activity: 25 µg/mL
Klebsiella pneumoniae [11]
  Activity: 1.56 µg/mL
[8]
  Activity: 0.78 µg/mL
Candida albicans [6]
  Activity: inactive

## COc1cc(CCN(C)C)c2ccc3cc4c(cc3c2c1OC)OCO4 [THALICTHUBERINEC]
Staphylococcus aureus [7]
  Activity: 100 µg/mL
Escherichia coli [2]
  Activity: inactive
[10]
  Activity: 1000 µg/mL
Klebsiella pneumoniae [11]
  Activity: 1000 µg/mL
[8]
  Activity: 25 µg/mL
Candida albicans [12]
  Activity: 50 µg/mL

## COc1cc2c3c(c1O)Oc1c4c(cc(OC)c1OC)[C@H](Cc1ccc(cc1)Oc1cc(ccc1O)C[C@@H]3N(C)CC2)N(C)CC4 [THALIGOSIDINE]
Staphylococcus aureus [7]
  Activity: 1000 µg/mL
Escherichia coli [2]
  Activity: inactive
[3]
  Activity: inactive
Klebsiella pneumoniae [4]
  Activity: inactive
[8]
  Activity: 100 µg/mL
Candida albicans [12]
  Activity: 1000 µg/mL

## CCOc1c2c3c(c(OC)c1OC)Oc1cc4c(cc1OC)CCN(C)[C@H]4Cc1ccc(OC)c(c1)Oc1ccc(cc1)C[C@@H]3N(C)CC2 [THALIGOSINE ETHYL ETHER]
Staphylococcus aureus [7]
  Activity: 100 µg/mL
Escherichia coli [2]
  Activity: inactive
[3]
  Activity: inactive
Klebsiella pneumoniae [11]
  Activity: 1000 µg/mL
[8]
  Activity: 100 µg/mL
Candida albicans [12]
  Activity: 100 µg/mL

## COc1ccc2cc1Oc1ccc(cc1)C[C@H]1c3c(c(O)c(OC)c(OC)c3Oc3cc4c(cc3OC)CCN(C)[C@H]4C2)CCN1C [THALIGOSINE]
Staphylococcus aureus [7]
  Activity: 100 µg/mL
Escherichia coli [2]
  Activity: inactive
[3]
  Activity: inactive
[8]
  Activity: 100 µg/mL
Candida albicans [12]
  Activity: 1000 µg/mL

## COc1cc2c3cc1Oc1c(OC)c(OC)c(OC)c4c1[C@H](Cc1ccc(cc1)Oc1cc(ccc1O)C[C@@H]3N(C)CC2)N(C)CC4 [THALIGOSININE]
Staphylococcus aureus [7]
  Activity: 1000 µg/mL
Escherichia coli [2]
  Activity: inactive
[3]
  Activity: inactive
Klebsiella pneumoniae [11]
  Activity: 1000 µg/mL
Klebsiella pneumoniae [4]
  Activity: inactive
[8]
  Activity: 1000 µg/mL
Candida albicans [6]
  Activity: inactive

## COc1ccc(C[C@H]2c3cc(OC)c(OC)c(O)c3CCN2C)cc1Oc1ccc(C[C@H]2c3cc(OC)c(OC)c(O)c3CCN2C)cc1 [THALIRUGIDINE]
Staphylococcus aureus [7]
  Activity: 1000 µg/mL
Escherichia coli [2]
  Activity: inactive
[3]
  Activity: inactive
Klebsiella pneumoniae [4]
  Activity: inactive
[8]
  Activity: 1000 µg/mL
Candida albicans [6]
  Activity: inactive

## COc1cc2c(cc1O)[C@H](Cc1ccc(OC)c(Oc3ccc(C[C@H]4c5cc(OC)c(OC)c(O)c5CCN4C)cc3)c1)N(C)CC2 [THALIRUGINE]
Staphylococcus aureus [7]
  Activity: 1000 µg/mL
Escherichia coli [2]
  Activity: inactive
[3]
  Activity: inactive
Klebsiella pneumoniae [4]
  Activity: inactive
[8]
  Activity: 1000 µg/mL
Candida albicans [6]
  Activity: inactive
